Biological target: T1, full-length human PKCι (Homo sapiens, UniProt P41743)
T1 construct: Recombinant, full-length human PKCι expressed in Sf21 insect cells is also commercially available; purchased EMD Millipore; host or cells: Sf21 insect cells (baculovirus)
T1 sequence (P41743 1-596): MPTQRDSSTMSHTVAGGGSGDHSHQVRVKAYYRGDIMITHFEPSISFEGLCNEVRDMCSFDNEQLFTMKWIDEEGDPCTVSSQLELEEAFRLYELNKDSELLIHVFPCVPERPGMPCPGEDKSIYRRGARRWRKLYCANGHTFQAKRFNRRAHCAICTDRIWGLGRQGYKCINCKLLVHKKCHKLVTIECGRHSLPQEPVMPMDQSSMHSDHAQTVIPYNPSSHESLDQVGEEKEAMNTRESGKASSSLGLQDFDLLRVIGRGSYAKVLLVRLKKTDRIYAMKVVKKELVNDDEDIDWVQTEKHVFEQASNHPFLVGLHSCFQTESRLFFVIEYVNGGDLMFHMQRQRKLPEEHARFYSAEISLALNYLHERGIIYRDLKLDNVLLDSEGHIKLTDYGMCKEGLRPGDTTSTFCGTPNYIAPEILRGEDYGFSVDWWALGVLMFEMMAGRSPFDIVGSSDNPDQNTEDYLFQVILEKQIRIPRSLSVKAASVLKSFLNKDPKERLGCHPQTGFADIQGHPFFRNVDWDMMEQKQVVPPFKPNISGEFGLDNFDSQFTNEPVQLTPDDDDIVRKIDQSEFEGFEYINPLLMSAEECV
Test: PKCι IC50 IMAP fluorescence polarisation assay, full-length enzyme, 150 μM ATP
Format: biochemical
Conditions: read-out: IC50 in IMAP assay against full length PKCi at 150 μM ATP
Summary of the method: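 IMAP fluorescence polarisation kinase assay: 15 pM baculovirus-expressed human PKCiota with 100 nM FAM-pseudosubstrate peptide and 150 μM ATP, 1 h at 25 °C. IMAP detection reagent then 2 h at 25 °C before FP measurement. Inhibition referenced to no-compound and no-enzyme controls for IC50 fitting.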

Row | SMILES | IC50
1 | CC1(C)CNCC[C@@H]1Nc1nc(-c2ccnc(Nc3c(F)cccc3F)c2)nc2cncc(C3CCC3)c12 [Example 255, {5-Cyclobutyl-2-[2-(2,6-difluoro-phenylamino)-pyridin-4-yl]-pyrido[3,4-d]pyrimidin-4-yl}-((S)-3,3-dimethyl-piperidin-4-yl)-amine] | < 100 nM
2 | Fc1ccc(F)c(Nc2cc(-c3nc(N4CCOC5CNCC54)c4c(C5CCC5)cncc4n3)ccn2)n1 (stereo not drawn) [Example 256, {4-[5-Cyclobutyl-4-(hexahydro-pyrrolo[3,4-b]-1,4-oxazin-4-yl)-pyrido[3,4-d]pyrimidin-2-yl]-pyridin-2-yl}-(3,6-difluoro-pyridin-2-yl)-amine] | < 100 nM
3 | Cc1cc2c(-c3nc(N4CCOC5CNCC54)c4c(C5CCC5)cncc4n3)ccnc2[nH]1 (stereo not drawn) [Example 257, 5-Cyclobutyl-4-(hexahydro-pyrrolo[3,4-b]-1,4-oxazin-4-yl)-2-(2-methyl-1H-pyrrolo[2,3-b]pyridin-4-yl)-pyrido[3,4-d]pyrimidine] | < 100 nM
4 | Fc1cccc(F)c1Nc1cc(-c2nc(N3CCOC4CNCC43)c3c(C4CCC4)cncc3n2)ccn1 (stereo not drawn) [Example 258, {4-[5-Cyclobutyl-4-(hexahydro-pyrrolo[3,4-b]-1,4-oxazin-4-yl)-pyrido[3,4-d]pyrimidin-2-yl]-pyridin-2-yl}-(2,6-difluoro-phenyl)-amine] | < 100 nM
5 | Fc1cccnc1-c1cc2c(-c3nc(N4CCOC5CNCC54)c4c(C5CCC5)cncc4n3)ccnc2[nH]1 (stereo not drawn) [Example 259, 5-Cyclobutyl-2-[2-(3-fluoro-pyridin-2-yl)-1H-pyrrolo[2,3-b]pyridin-4-yl]-4-(hexahydro-pyrrolo[3,4-b]-1,4-oxazin-4-yl)-pyrido[3,4-d]pyrimidine] | < 100 nM
6 | CC1CC(Nc2nc(-c3ccnc(Nc4ncccc4F)c3)nc3cncc(C4CC4)c23)CC(C)N1 (stereo not drawn) [Example 260, {5-Cyclopropyl-2-[2-(3-fluoro-pyridin-2-ylamino)-pyridin-4-yl]-pyrido[3,4-d]pyrimidin-4-yl}-(2,6-dimethyl-piperidin-4-yl)-amine] | 100 to 1000 nM
7 | CC1(C)CNCC[C@@H]1Nc1nc(-c2ccnc(Nc3cccnc3)c2)nc2cncc(C3CCC3)c12 [Example 264, 5-cyclobulyl-N-[(4S)-3,3-dimethyl-4-piperidyl]-2-[2-(3-pyridylamino)-4-pyridyl]pyrido[3,4-d]pyrimidin-4-amine] | < 100 nM
8 | CC1(C)CNCC[C@@H]1Nc1nc(-c2ccnc(Nc3cncc(F)c3)c2)nc2cncc(C3CC3)c12 [Example 265, 5-cyelopropyl-N-[(4S)-3,3-dimethyl-4-piperidyl]-2-[2-[(5-fluoro-3-pyridyl)amino]-4-pyridyl]pyrido[3,4-d]pyrimidin-4-amine] | 100 to 1000 nM
9 | CC1(C)CNCC[C@@H]1Nc1nc(-c2ccnc(Nc3cncc(Cl)c3)c2)nc2cncc(C3CC3)c12 [Example 266, 2-[2-[(5-chloro-3-pyridyl)amino]-4-pyridyl]-5-cyclopropyl-N-[(4S)-3,3-dimethyl-4-piperidyl]pyrido[3,4-d]pyrimidin-4-amine] | 100 to 1000 nM
10 | CC1(C)CNCC[C@@H]1Nc1nc(-c2ccnc(N[C@H](C(=O)O)c3ccccc3)c2)nc2cncc(C3CC3)c12 [Example 267, (2S)-2-[[4-[5-cyclopropyl-4-[[(4S)-3,3-dimethyl-4-piperidyl]amino]pyrido[3,4-d]pyrimidin-2-yl]-2-pyridyl]amino]-2-phenyl-acetic acid] | 1000 to 10000 nM
11 | COc1cncc2nc(-c3ccnc(Nc4nc(F)ccc4F)c3)nc(N[C@H]3CCNCC3(C)C)c12 [Example 268, 2-[2-[(3,6-difluoro-2-pyridyl)amino]-4-pyridyl]-N-[(4S)-3,3-dimethyl-4-piperidyl]-5-methoxy-pyrido[3,4-d]pyrimidin-4-amine] | < 100 nM
12 | COc1cncc2nc(-c3ccnc(Nc4ncccc4F)c3)nc(N[C@H]3CCNCC3(C)C)c12 [Example 269, N-[(4S)-3,3-dimethyl-4-piperidyl]-2-[2-[(3-fluoro-2-pyridyl)amino]-4-pyridyl]-5-methoxy-pyrido[3,4-d]pyrimidin-4-amine] | 100 to 1000 nM
